Values of other authors, collected in patent US20100233107A1, “MEDICATED TONING LOTION” (priority 2009, published 2010).

O=C(O)c1ccccc1O [salicylic acid]
solubility in water: approximately 0.2 % by weight | volume of water in which one gram dissolves (one gram of salicylic acid): 460 mL
